# Marks after values point to notes of the source that are not given here.
# Key:
# [1] = tested on: patients with advanced CHF and reduced EF; experiment: Trial serum and plasma biomarkers; format: in vivo, human
# Method: Blood samples were collected in 1) morning fasting state baseline, 2) after standardized breakfast prior to intervention, 3) after 30 min infusion, 4) after 60 min infusion and 5) after 120 min infusion, 6) 30 min after completed infusion and 7) at follow-up 2-5 days later (FIG. 2). Blood was collected in ethylenediaminetetraacetic acid (EDTA) and serum tubes and immediately centrifuged and plasma and serum was aliquoted and stored in −70° C. until analysis.
# Creatinine clearance was calculated according to the Cockcroft-Gault equation; ([140-age] * weight in kg*1.23)/creatinine*0.85 (if […]). Renal function was measured by creatinine and cystatin-C at Karolinska University Hospital core laboratory. NT-proBNP was analyzed by proBNPII (Roche Diagnostics, Bromma, Sweden). Plasma glucose measurements were from EDTA-containing whole venous blood tubes and analyzed with a photometric point-of-care technique, the HemoCue® Glucose 201 RT (Ängelholm, Sweden). Troponin T was analyzed in the Karolinska University Hospital core laboratory.
# [2] = tested on: intracellular cAMP concentration; experiment: cAMP measurement in cardiomyocytes (direct immunoassay kit); format: cell-based, mouse; conditions: vs placebo
# Method: The intracellular cAMP concentration was measured using the cAMP direct Immunoassay kit (Abcam ab65355). Briefly, frozen cardiomyocytes pellets from groups described above (Placebo, Ghrelin, D-Lys 3 GHS-R1a+Ghrelin) were homogenized on ice using volume of 0.1 M HCl to obtain a protein concentration of 1 mg/ml. Acetylated supernatants of samples were used for the incubation with antibodies in ELISA plates according to the kit manufacturer. Finally, the optic density absorbance at 450 nm was analyzed using a microplate reader (Biotek, Synergy 2). The concentration of cAMP was normalized, dividing the resulting readout (pmol/ml) by the total protein concentration (mg/ml) for each sample. The experiments were conducted by an operator blinded regarding the treatment of the animals.
# [3] = Baseline, bracketed range in line below
smiles,measurement,setting,value
CCCCCCCC(=O)OC[C@H](NC(=O)[C@H](CO)NC(=O)CN)C(=O)N[C@@H](Cc1ccccc1)C(=O)N[C@@H](CC(C)C)C(=O)N[C@@H](CO)C(=O)N1CCC[C@H]1C(=O)N[C@@H](CCC(=O)O)C(=O)N[C@@H](Cc1cnc[nH]1)C(=O)N[C@@H](CCC(N)=O)C(=O)N[C@@H](CCCNC(=N)N)C(=O)N[C@H](C(=O)N[C@@H](CCC(N)=O)C(=O)N[C@@H](CCC(N)=O)C(=O)N[C@@H](CCCNC(=N)N)C(=O)N[C@@H](CCCCN)C(=O)N[C@@H](CCC(=O)O)C(=O)N[C@@H](CO)C(=O)N[C@@H](CCCCN)C(=O)N[C@@H](CCCCN)C(=O)N1CCC[C@H]1C(=O)N1CCC[C@H]1C(=O)N[C@@H](C)C(=O)N[C@@H](CCCCN)C(=O)N[C@@H](CC(C)C)C(=O)N[C@@H](CCC(N)=O)C(=O)N1CCC[C@H]1C(=O)N[C@@H](CCCNC(=N)N)C(=O)O)C(C)C [Ghrelin],ALAT,[1]; 2-5 days FU,0.31 ukat/L
same,ASAT,[1]; 2-5 days FU,0.42 ukat/L
same,Cystatin C,[1]; 2-5 days FU,1.59 ± 0.52* mg/L
same,GT,[1]; 2-5 days FU,0.83 ukat/L
same,Haematocrit,[1]; 2-5 days FU,41 ± 5%
same,INR among non-warfarin treated,[1]; 2-5 days FU,1.0
same,INR among warfarin treated,[1]; 2-5 days FU,2.6
same,Insulin (non-fasting),[1]; 2-5 days FU,30 mlE/L
same,NT-proBNP,[1]; 2-5 days FU,2450* ng/L
same,Potassium,[1]; 2-5 days FU,4.3 ± 0.4 mmol/L
same,Sodium,[1]; 2-5 days FU,138 ± 12 mmol/L
same,Triglycerides,[1]; 2-5 days FU,1.6 mmol/L
same,Troponin T,[1]; 2-5 days FU,31 ± 38 ng/L
same,White blood cell count,[1]; 2-5 days FU,7.4 ± 2.0 109/L
same,hsCRP,[1]; 2-5 days FU,3.0 mg/L
same,NT-proBNP,[1]; 2-5 days after infusion,remained elevated
same,ALAT,[1]; 30′ after infusion,0.32 ukat/L
same,ASAT,[1]; 30′ after infusion,0.43 ukat/L
same,Cystatin C,[1]; 30′ after infusion,1.54 ± 0.41 mg/L
same,GT,[1]; 30′ after infusion,0.82 ukat/L
same,NT-proBNP,[1]; 30′ after infusion,2820 ng/L
same,Troponin T,[1]; 30′ after infusion,21 ± 10 ng/L
same,hsCRP,[1]; 30′ after infusion,3.5 mg/L
same,Cystatin C,[1]; Baseline,1.45 ± 0.44 mg/L
same,Troponin T,[1]; Baseline,21 ± 9 ng/L
same,ALAT,[1]; Baseline (Table 12),0.31 ukat/L
same,ASAT,[1]; Baseline (Table 12),0.41 ukat/L
same,Cystatin C,[1]; Baseline (Table 12),1.45 ± 10.44 mg/L
same,GT,[1]; Baseline (Table 12),0.77 ukat/L
same,Haematocrit,[1]; Baseline (Table 12),40 ± 4%
same,INR among non-warfarin treated,[1]; Baseline (Table 12),1.1
same,INR among warfarin treated,[1]; Baseline (Table 12),2.2
same,Insulin (non-fasting),[1]; Baseline (Table 12),36 mlE/L
same,NT-proBNP,[1]; Baseline (Table 12),2080 ng/L
same,Sodium,[1]; Baseline (Table 12),139 ± 13 mmol/L
same,Triglycerides,[1]; Baseline (Table 12),1.4 mmol/L
same,Troponin T,[1]; Baseline (Table 12),21 ± 10 ng/L
same,White blood cell count,[1]; Baseline (Table 12),7.4 ± 1.9 109/L
same,hsCRP,[1]; Baseline (Table 12),2.7 mg/L
same,ALAT,[1]; [3],0.31 ukat/L
same,ASAT,[1]; [3],0.41 ukat/L
same,GT,[1]; [3],0.77 ukat/L
same,hsCRP,[1]; [3],2.7 mg/L
same,NT-proBNP,"[1]; Baseline, bracketed range in lines below",2080 ng/L
same,ALAT,[1]; Infusion + 30′,0.31 ukat/L
same,ASAT,[1]; Infusion + 30′,0.40 ukat/L
same,Cystatin C,[1]; Infusion + 30′,1.46 ± 0.44 mg/L
same,GT,[1]; Infusion + 30′,0.78 ukat/L
same,NT-proBNP,[1]; Infusion + 30′,2220 ng/L
same,Troponin T,[1]; Infusion + 30′,21 ± 9 ng/L
same,hsCRP,[1]; Infusion + 30′,3.0 mg/L
same,ALAT,[1]; Infusion + 60′,0.31 ukat/L
same,ASAT,[1]; Infusion + 60′,0.44 ukat/L
same,Cystatin C,[1]; Infusion + 60′,1.55 ± 0.47* mg/L
same,GT,[1]; Infusion + 60′,0.79 ukat/L
same,NT-proBNP,[1]; Infusion + 60′,2340* ng/L
same,Troponin T,[1]; Infusion + 60′,22 ± 10 ng/L
same,hsCRP,[1]; Infusion + 60′,3.0 mg/L
same,ALAT,[1]; Infusion + 120′,0.31 ukat/L
same,ASAT,[1]; Infusion + 120′,0.41 ukat/L
same,Cystatin C,[1]; Infusion + 120′,1.57 ± 0.43* mg/L
same,GT,[1]; Infusion + 120′,0.80 ukat/L
same,NT-proBNP,[1]; Infusion + 120′,2630* ng/L
same,Troponin T,[1]; Infusion + 120′,21 ± 10 ng/L
same,hsCRP,[1]; Infusion + 120′,3.3 mg/L
same,Cystatin C,[1]; during infusion,increased
same,NT-proBNP,[1]; during infusion,increased
same,cAMP concentration in cardiomyocytes,[2],reduces
same,cAMP concentration in cardiomyocytes,[2]; listed as ghrelin,lower compared to placebo
